Data taken from patent publication US20070249590A1, “Substituted indolo[2,3-a]pyrrolo[3,4-c]carbazole compounds useful in treating kinase disorders” (priority 2005, published 2007).

Molecular target: T1, JAK3 (JH1 and JH2 domain) (Homo sapiens, UniProt P52333)
T1 sequence (P52333 521-1111 limits assumed): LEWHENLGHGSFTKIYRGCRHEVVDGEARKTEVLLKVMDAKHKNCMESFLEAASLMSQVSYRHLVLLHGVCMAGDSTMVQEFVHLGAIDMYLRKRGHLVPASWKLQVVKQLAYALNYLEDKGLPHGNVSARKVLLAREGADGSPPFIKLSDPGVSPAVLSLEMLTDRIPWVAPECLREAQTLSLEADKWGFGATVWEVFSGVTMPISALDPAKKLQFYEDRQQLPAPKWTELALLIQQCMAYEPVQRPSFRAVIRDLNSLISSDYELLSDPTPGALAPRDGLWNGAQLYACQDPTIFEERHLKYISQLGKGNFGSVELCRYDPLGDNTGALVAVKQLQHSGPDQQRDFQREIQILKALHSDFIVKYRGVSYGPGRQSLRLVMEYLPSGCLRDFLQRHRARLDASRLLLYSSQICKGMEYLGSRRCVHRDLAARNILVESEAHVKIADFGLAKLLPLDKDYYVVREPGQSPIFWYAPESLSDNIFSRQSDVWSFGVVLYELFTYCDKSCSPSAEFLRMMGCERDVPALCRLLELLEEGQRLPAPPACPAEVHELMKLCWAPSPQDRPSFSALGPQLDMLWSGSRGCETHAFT
Assay: JAK3 Kinase Assay (ELISA of peptide substrate phosphorylation)
Format: biochemical
Details: purified JAK3 enzyme, 10 μM ATP, biotinylated peptide substrate, 1 hour at room temperature
Summary of the method: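 Sf21-baculovirus-expressed JAK3 (JH1+JH2), glutathione-bead purified, with biotinylated peptide substrate (in buffer containing 10 μM ATP) in HEPES pH 7.5/MgCl2/DTT, 1 h RT. Product was captured on Neutravidin, detected with HRP anti-phosphotyrosine (PY99)/TMB, OD 450/650 nm. Triplicate 16-point half-log series from 200 μM gave IC50; otherwise % inhibition at 1 μM.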

| IC50 [nM] | SMILES |
| --- | --- |
| 29 | O=C1NCc2c1c1c3ccccc3n3c1c1c2c2ccccc2n1CC(O)(CO)C3 (centres unmarked) [Cpd 25, 12,13-(2-hydroxy-2-hydroxymethyl-propan-1,3-yl)-6,7,12,13-tetrahydro-5-oxo-5H-indolo[2,3-a]pyrrolo[3,4-c]carbazole] |
| 125 | CN(C)CCNC(=O)OC1CCCn2c3ccccc3c3c4c(c5c6ccccc6n(c5c32)C1)C(=O)NC4=O (centres unmarked) [Cpd 114, 12,13-{2-[(2-dimethylamino-ethyl)carbamoyloxy]-pentan-1,5-yl}-12,13-dihydro-5,7-dioxo-6H-indolo[2,3-a]pyrrolo[3,4-c]carbazole] |
| 127 | O=C1NC(=O)c2c1c1c3ccccc3n3c1c1c2c2ccccc2n1CC(OC(=O)N1CCN(CCO)CC1)C(O)C3 (centres unmarked) [Cpd 104, 12,13-(2-{[4-(2-hydroxy-ethyl)piperazin-1-yl]carbonyloxy}-3-hydroxy-butan-1,4-yl)-12,13-dihydro-5,7-dioxo-6H-indolo[2,3-a]pyrrolo[3,4-c]carbazole] |
| 52 | COCCNC(=O)C1(O)Cn2c3ccccc3c3c4c(c5c6ccccc6n(c5c32)CC1O)C(=O)NC4=O (centres unmarked) [Cpd 124, 12,13-{2-[(2-methoxy-ethyl)carbamoyl]-2,3-dihydroxy-butan-1,4-yl}-12,13-dihydro-5,7-dioxo-6H-indolo[2,3-a]pyrrolo[3,4-c]carbazole] |
| 169 | COc1ccc2[nH]cc(CCNC(=O)OC3Cn4c5ccccc5c5c6c(c7c8ccccc8n(c7c54)CC3O)C(=O)NC6=O)c2c1 (centres unmarked) [Cpd 87, 12,13-(2-{[2-(5-methoxy-1H-indol-3-yl)ethyl]carbamoyloxy}-3-hydroxy-butan-1,4-yl)-12,13-dihydro-5,7-dioxo-6H-indolo[2,3-a]pyrrolo[3,4-c]carbazole] |
| 61 | Cc1ccc(CNC(=O)OC2CCn3c4ccccc4c4c5c(c6c7ccccc7n(c6c43)C2)C(=O)NC5=O)cc1 (centres unmarked) [Cpd 45, 12,13-{2-[(4-methyl-benzyl)carbamoyloxy]-butan-1,4-yl}-12,13-dihydro-5,7-dioxo-6H-indolo[2,3-a]pyrrolo[3,4-c]carbazole] |
| 3 | O=C1NCc2c1c1c3ccccc3n3c1c1c2c2cc(CO)ccc2n1CC(CO)C3 (centres unmarked) [Cpd 212, 9-hydroxymethyl-12,13-(2-hydroxymethyl-propan-1,3-yl)-6,7,12,13-tetrahydro-5-oxo-5H-indolo[2,3-a]pyrrolo[3,4-c]carbazole] |
| 38 | O=C1NC(=O)c2c1c1c3ccccc3n3c1c1c2c2ccccc2n1CC(OC(=O)N1CCOCC1)CC3 (centres unmarked) [Cpd 71, 12,13-[2-(morpholin-4-yl-carbonyloxy)-butan-1,4-yl]-12,13-dihydro-5,7-dioxo-6H-indolo[2,3-a]pyrrolo[3,4-c]carbazole] |
| 433 | CN(C)CCCN1CCN(C(=O)OC2CCn3c4ccccc4c4c5c(c6c7ccccc7n(c6c43)C2)C(=O)NC5=O)CC1 (centres unmarked) [Cpd 68, 12,13-(2-{[4-(3-dimethylamino-prop-1-yl)piperazin-1-yl]carbonyloxy}-butan-1,4-yl)-12,13-dihydro-5,7-dioxo-6H-indolo[2,3-a]pyrrolo[3,4-c]carbazole] |
| 71 | COc1ccccc1N1CCN(C(=O)OC2CCn3c4ccccc4c4c5c(c6c7ccccc7n(c6c43)C2)C(=O)NC5=O)CC1 (centres unmarked) [Cpd 70, 12,13-(2-{[4-(2-methoxy-phenyl)piperazin-1-yl]carbonyloxy}-butan-1,4-yl)-12,13-dihydro-5,7-dioxo-6H-indolo[2,3-a]pyrrolo[3,4-c]carbazole] |
| 184 | O=C1NC(=O)c2c1c1c3ccccc3n3c1c1c2c2ccccc2n1CC(OC(=O)N1CCCCC1)C(O)C3 (centres unmarked) [Cpd 99, 12,13-[2-(piperidin-1-yl-carbonyloxy)-3-hydroxy-butan-1,4-yl]-12,13-dihydro-5,7-dioxo-6H-indolo[2,3-a]pyrrolo[3,4-c]carbazole] |
| > 200 | CN(C)CCCN(CCCN(C)C)C(=O)OC1Cn2c3ccccc3c3c4c(c5c6ccccc6n(c5c32)CC1O)C(=O)NC4=O (centres unmarked) [Cpd 109, 12,13-(2-{[N,N-bis-(3-dimethylamino-prop-1-yl)]carbamoyloxy}-3-hydroxy-butan-1,4-yl)-12,13-dihydro-5,7-dioxo-6H-indolo[2,3-a]pyrrolo[3,4-c]carbazole] |
| 28 | O=C1NC(=O)c2c1c1c3ccccc3n3c1c1c2c2ccccc2n1CC(O)(C(=O)N1CCC(O)CC1)C(O)C3 (centres unmarked) [Cpd 132, 12,13-{2-[(4-hydroxy-piperidin-1-yl)carbonyl]-2,3-dihydroxy-butan-1,4-yl}-12,13-dihydro-5,7-dioxo-6H-indolo[2,3-a]pyrrolo[3,4-c]carbazole] |
| 241 | CC(C)NCc1ccc2c(c1)c1c3c(c4c5ccccc5n5c4c1n2CC(CO)C5)CNC3=O (centres unmarked) [Cpd 213, 3-(isopropylaminomethyl)-12,13-(2-hydroxymethyl-propan-1,3-yl)-6,7,12,13-tetrahydro-5-oxo-5H-indolo[2,3-a]pyrrolo[3,4-c]carbazole] |
| 3 | O=C1NCc2c1c1c3cc(O)ccc3n3c1c1c2c2ccccc2n1CC(O)C(O)C3 (centres unmarked) [Cpd 189, 3-hydroxy-12,13-(2,3-dihydroxy-butan-1,4-yl)-6,7,12,13-tetrahydro-5-oxo-5H-indolo[2,3-a]pyrrolo[3,4-c]carbazole] |
| 1000 | O=C1NC(=O)c2c1c1c3ccccc3n3c1c1c2c2ccccc2n1CC(OC(=O)N1CCN(CCc2ccccc2)CC1)CC3 (centres unmarked) [Cpd 65, 12,13-(2-{[4-(2-phenyl-ethyl)piperazin-1-yl]carbonyloxy}-butan-1,4-yl)-12,13-dihydro-5,7-dioxo-6H-indolo[2,3-a]pyrrolo[3,4-c]carbazole] |
| 446 | O=C1NC(=O)c2c1c1c3ccccc3n3c1c1c2c2ccccc2n1CC(OC(=O)N1CCCC1CN1CCCC1)CC3 (centres unmarked) [Cpd 52, 12,13-(2-{[2-(pyrrolidin-1-yl-methyl)pyrrolidin-1-yl]carbonyloxy}-butan-1,4-yl)-12,13-dihydro-5,7-dioxo-6H-indolo[2,3-a]pyrrolo[3,4-c]carbazole] |
| 103 | O=C1NCc2c1c1c3cc(Cn4ccnc4)ccc3n3c1c1c2c2ccccc2n1CC(O)C(O)C3 (centres unmarked) [Cpd 202, 3-(imidazol-1-ylmethyl)-12,13-(2,3-dihydroxy-butan-1,4-yl)-6,7,12,13-tetrahydro-5-oxo-5H-indolo[2,3-a]pyrrolo[3,4-c]carbazole] |
| 48 | O=C1NC(=O)c2c1c1c3ccccc3n3c1c1c2c2ccccc2n1CC(O)(C(=O)NCCCN1CCCC1=O)C(O)C3 (centres unmarked) [Cpd 127, 12,13-(2-{[3-(2-oxo-pyrrolidin-1-yl)prop-1-yl]carbamoyl}-2,3-dihydroxy-butan-1,4-yl)-12,13-dihydro-5,7-dioxo-6H-indolo[2,3-a]pyrrolo[3,4-c]carbazole] |
| 90 | O=C1NCc2c1c1c3cc(/C=C/n4ccnc4)ccc3n3c1c1c2c2ccccc2n1CC(CO)C3 (centres unmarked) [Cpd 220, 3-[(2E)-2-1H-imidazol-1-yl-ethenyl]-12,13-(2-hydroxymethyl-propan-1,3-yl)-6,7,12,13-tetrahydro-5-oxo-5H-indolo[2,3-a]pyrrolo[3,4-c]carbazole] |
| 618 | O=C1NCc2c1c1c3cc(OCCN4CCOCC4)ccc3n3c1c1c2c2ccccc2n1CC(O)C(O)C3 (centres unmarked) [Cpd 203, 3-(2-morpholin-4-yl-ethoxy)-12,13-(2,3-dihydroxy-butan-1,4-yl)-6,7,12,13-tetrahydro-5-oxo-5H-indolo[2,3-a]pyrrolo[3,4-c]carbazole] |
| 706 | CC(C)NC(=O)OC1CCn2c3ccccc3c3c4c(c5c6ccccc6n(c5c32)CC1)C(=O)NC4 (centres unmarked) [Cpd 180, 12,13-[3-(isopropyl-carbamoyloxy)-pentan-1,5-yl]-6,7,12,13-tetrahydro-5-oxo-5H-indolo[2,3-a]pyrrolo[3,4-c]carbazole] |
| 14 | O=C1NCc2c1c1c3ccccc3n3c1c1c2c2ccccc2n1CCOCC3 [Cpd 29, 12,13-(3-oxa-pentan-1,5-yl)-6,7,12,13-tetrahydro-5-oxo-5H-indolo[2,3-a]pyrrolo[3,4-c]carbazole] |

| SMILES | IC50 [nM] |
| --- | --- |
| CC(C)(C)OC(=O)NC1CCN(C(=O)OCC2(O)Cn3c4ccccc4c4c5c(c6c7ccccc7n(c6c43)C2)C(=O)NC5)CC1 (centres unmarked) [Cpd 175, 12,13-{2-hydroxy-2-[(4-t-butoxyamido-piperidin-1-yl)carbonyloxymethyl]-propan-1,3-yl}-6,7,12,13-tetrahydro-5-oxo-5H-indolo[2,3-a]pyrrolo[3,4-c]carbazole] | 244 |
| CC(C)(C)OC(=O)CNC(=O)OC1CCn2c3ccccc3c3c4c(c5c6ccccc6n(c5c32)C1)C(=O)NC4=O (centres unmarked) [Cpd 37, 12,13-{2-[(t-butoxycarbonylmethyl)carbamoyloxy]-butan-1,4-yl}-12,13-dihydro-5,7-dioxo-6H-indolo[2,3-a]pyrrolo[3,4-c]carbazole] | 4 |
| CC(C)(C)OC(=O)N1CCC(NC(=O)OCC2(O)Cn3c4ccccc4c4c5c(c6c7ccccc7n(c6c43)C2)C(=O)NC5)CC1 (centres unmarked) [Cpd 177, 12,13-{2-hydroxy-2-[(1-t-butoxycarbonyl-piperidin-4-yl)carbamoyloxymethyl]-propan-1,3-yl}-6,7,12,13-tetrahydro-5-oxo-5H-indolo[2,3-a]pyrrolo[3,4-c]carbazole] | 143 |
